“And” between values parts separate entries of the source, which are not always exact repeats. Equal values may be shown once. “Also recorded” adds a separate entry of the source. Read-outs that look alike come from different tables or passages of the source.

The text below walks through data of publication PMC2662629 (Pharmaceutical research, 2008).

Series [1] concerns mouse ABCG2. The series is classed as in vivo, mice. The note with it: FVB, mouse, plasma, oral, 20 mg/kg.
Series [2] deals with T1, mouse ABCG2 (Mus musculus, UniProt Q7TMS5).
T1 sequence (Q7TMS5 1-657): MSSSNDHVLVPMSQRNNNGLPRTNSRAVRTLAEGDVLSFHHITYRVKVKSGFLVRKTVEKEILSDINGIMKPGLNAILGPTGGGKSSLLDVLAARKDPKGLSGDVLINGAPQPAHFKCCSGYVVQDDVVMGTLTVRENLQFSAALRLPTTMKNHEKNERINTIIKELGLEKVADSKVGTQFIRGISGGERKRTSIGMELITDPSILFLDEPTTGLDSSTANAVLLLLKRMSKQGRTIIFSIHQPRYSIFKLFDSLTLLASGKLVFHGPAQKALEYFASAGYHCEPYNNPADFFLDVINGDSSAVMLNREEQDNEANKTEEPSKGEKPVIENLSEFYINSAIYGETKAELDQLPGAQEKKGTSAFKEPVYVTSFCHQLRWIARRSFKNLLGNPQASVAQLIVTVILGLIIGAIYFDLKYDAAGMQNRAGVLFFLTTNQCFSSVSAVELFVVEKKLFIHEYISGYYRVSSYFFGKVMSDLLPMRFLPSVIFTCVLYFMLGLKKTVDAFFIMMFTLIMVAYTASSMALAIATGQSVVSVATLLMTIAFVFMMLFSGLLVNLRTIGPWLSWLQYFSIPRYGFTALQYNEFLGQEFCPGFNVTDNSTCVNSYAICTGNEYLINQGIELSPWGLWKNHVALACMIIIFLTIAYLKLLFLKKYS
The series is classed as in vivo, mice.

For series [3], the system named is mouse ABCG2. The series is classed as in vivo, mice.
The target in a further series is T2, human ABCG2 (Homo sapiens, UniProt Q9UNQ0).
T2 sequence (Q9UNQ0 1-655): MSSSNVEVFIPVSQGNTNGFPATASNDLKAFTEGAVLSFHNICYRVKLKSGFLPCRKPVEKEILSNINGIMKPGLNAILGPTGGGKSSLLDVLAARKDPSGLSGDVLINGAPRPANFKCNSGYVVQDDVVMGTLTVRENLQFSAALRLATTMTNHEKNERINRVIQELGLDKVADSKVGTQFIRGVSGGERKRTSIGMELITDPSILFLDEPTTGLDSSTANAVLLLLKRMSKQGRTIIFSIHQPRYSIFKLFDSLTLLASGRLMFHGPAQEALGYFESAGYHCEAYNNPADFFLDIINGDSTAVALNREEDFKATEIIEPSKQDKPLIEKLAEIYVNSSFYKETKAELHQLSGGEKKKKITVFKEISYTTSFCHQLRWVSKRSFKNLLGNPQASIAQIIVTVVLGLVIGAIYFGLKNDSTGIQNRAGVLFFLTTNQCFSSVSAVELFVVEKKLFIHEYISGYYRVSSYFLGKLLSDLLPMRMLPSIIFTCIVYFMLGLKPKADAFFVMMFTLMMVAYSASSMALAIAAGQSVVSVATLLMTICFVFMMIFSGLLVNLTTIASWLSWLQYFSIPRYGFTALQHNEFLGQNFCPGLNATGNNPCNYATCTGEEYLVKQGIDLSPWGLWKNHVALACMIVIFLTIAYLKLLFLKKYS
Format: binding.

In the next series the test system is MCF-7 cells. The conditions noted are these: read-out: IC50 for MCF-7 cells; cited from earlier work.
The target of a further series is T3, ABCG2 (Rattus norvegicus, UniProt Q80W57).
T3 sequence (Q80W57 1-657): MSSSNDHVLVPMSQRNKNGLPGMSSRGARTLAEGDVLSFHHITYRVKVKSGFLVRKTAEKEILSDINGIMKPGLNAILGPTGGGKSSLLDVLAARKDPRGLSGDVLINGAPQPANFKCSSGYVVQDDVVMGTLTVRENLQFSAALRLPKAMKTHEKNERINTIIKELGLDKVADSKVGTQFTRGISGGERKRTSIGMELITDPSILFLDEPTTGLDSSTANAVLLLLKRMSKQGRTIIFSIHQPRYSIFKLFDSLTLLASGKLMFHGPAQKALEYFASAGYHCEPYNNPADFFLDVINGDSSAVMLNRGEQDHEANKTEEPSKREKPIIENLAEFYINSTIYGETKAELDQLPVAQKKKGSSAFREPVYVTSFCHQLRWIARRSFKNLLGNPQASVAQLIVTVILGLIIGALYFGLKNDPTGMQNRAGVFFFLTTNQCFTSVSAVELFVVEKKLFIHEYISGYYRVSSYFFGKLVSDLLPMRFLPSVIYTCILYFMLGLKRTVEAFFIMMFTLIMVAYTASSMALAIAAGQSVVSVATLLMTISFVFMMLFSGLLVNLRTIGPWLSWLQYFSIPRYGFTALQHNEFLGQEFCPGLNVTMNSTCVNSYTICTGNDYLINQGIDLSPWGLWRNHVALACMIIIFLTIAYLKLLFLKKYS
The series is described as follows: Bodipy FL prazosin transport assay in isolated rat brain capillaries. The series is classed as cell-based. The conditions noted are these: for IC50: rat brain capillaries.

A further series deals with pancreatic cancer. The note with it: oral administration of 8 g curcumin daily up to 18 months; cited from earlier work.
For series [4] the following is noted: clinical trials in humans; cited from earlier work.

A word on the half-life: it is the time in which the quantity being followed falls by half. Read a low half-life as rapid decline. One may read the Cmax as the maximum level reached in the sampled fluid or tissue. Usually IC50 stands for the concentration that gives 50% inhibition. In the series with mouse ABCG2 [1], `O=C(O)c1cc(/N=N/c2ccc(S(=O)(=O)Nc3ccccn3)cc2)ccc1O` [SASP, Sulfasalazine] showed a concentration at 24 h of under 1 ng/mL. The half-life at mouse ABCG2 [2] (FVB, mouse, plasma, po) was 5.02 h; at mouse ABCG2 [2] (FVB, mouse, plasma, po, 20 mg/kg), 1.08 h. Besides, at mouse ABCG2 [2] (FVB, mouse, plasma, po, 20 mg/kg, Cmax of SASP, SASP 20 mg/kg PO, vehicle pretreatment, wild-type mice), the Cmax worked out at 1230 ng/mL. For the same compound, the “SASP plasma level in abcg2-/- mice relative to abcb1a-/- and wild-type groups” value in the series on mouse ABCG2 [3] (90 min after SASP 20 mg/kg PO) is given as 10-20 fold. Further, the concentration at 90 min in the series with mouse ABCG2 [3] (FVB, mouse, plasma, oral, 20 mg/kg) is ~540 ng/mL and 12400 ng/mL. Further, the IC50 against human ABCG2 worked out at 1.02 µM.

Turning to `COc1ccc2c3c([nH]c2c1)[C@H](CC(C)C)N1C(=O)[C@H](CCC(=O)OC(C)(C)C)NC(=O)[C@@H]1C3` [Ko143], the IC50 in the series on MCF-7 cells was 19 µM.

Turning to `COc1ccc2c3c([nH]c2c1)[C@H](C=C(C)C)N1C(=O)[C@@H]2CCCN2C(=O)[C@@H]1C3` [FTC, fumitremorgin C], the “inhibition of the efflux of Bodipy-prazosin in brain capillaries” value on ABCG2 was found to be 50%. Further, on ABCG2 (5 μM inhibitor, steady state), the “luminal BODIPY FL prazosin fluorescence, % of control capillaries” value is listed as “approximately 50%”.

In the case of `COc1cc(/C=C/C(=O)CC(=O)/C=C/c2ccc(O)c(OC)c2)ccc1O` [curcumin, Diferuoyl methane], the “effect of curcumin pretreatment on plasma concentration of SASP” value at mouse ABCG2 [2] (curcumin 40 mg/kg PO 1 h before SASP 20 mg/kg PO, FVB-WT mice, data not shown) is “no effect”. Moreover, the “effect of curcumin on the levels of SASP” value with mouse ABCG2 [3] (abcg2-/- mice, curcumin 400 mg/kg PO, 90 min after SASP 20 mg/kg PO) was “no significant effect; also recorded: no significant increase”. The “progression of pancreatic cancer” value with pancreatic cancer was “inhibited progression”. Further, the “systemic bioavailability of orally administered curcumin” value in series [4] is given as “relatively low”. Further, the IC50 against ABCG2 (IC50, inhibition of ABCG2-mediated efflux of BODIPY FL prazosin, ex vivo) amounted to 0.019 µM; against ABCG2 (IC50, inhibition of ABCG2 activity (luminal BODIPY FL prazosin fluorescence), 2 μM BODIPY FL prazosin, 1 h, room temperature), 0.0194 µM.

For the compound `COc1cc2c(cc1OC)CN(CCc1ccc(NC(=O)c3cccc4c(=O)c5cccc(OC)c5[nH]c34)cc1)CC2` [GF120918], the IC50 in the series with MCF-7 cells was 18 µM.
